Reference: publication PMC13083723 (Patterns, 2026)

system: Vero-E6 cells; experiment: cells; format: cell-based; conditions: not given

Work on `CCNC(=O)C[C@@H]1N=C(c2ccc(Cl)cc2)c2cc(OC)ccc2-n2c(C)nnc21` [I-BET-762, reference compound] yielded a result_ITMP of 13.27 percent effect.

same assay, conditions: Chlorocebus sabaeus, Vero C1008, 24 h, read-out: PL_Result

Compared with `CCC(Oc1ccc(Cl)cc1)C(=O)OC1CC2CCC(C1)N2C` (stereo not drawn) [SPE_A92933783], `O=C(N[C@H]1CN2CCC1CC2)c1ccc(Cl)cc1` [SPE_K28863208] is higher in activation at 10 µM: -0.394% for the first, -0.0405% for the second.

Going from `NC[C@H]1O[C@H](O[C@H]2[C@H](O)[C@@H](O[C@H]3O[C@H](CO)[C@@H](O)[C@H](N)[C@H]3O)[C@H](N)C[C@@H]2N)[C@H](N)C[C@@H]1O` [SPE_K96342952] to `CC(=O)OCC(=O)[C@@]1(O)CC[C@H]2[C@@H]3CCC4=CC(=O)C=C[C@]4(C)[C@@]3(F)[C@@H](O)C[C@@]21C` [SPE_K29173907], the activation at 10 µM falls from -3.75% to -3.84%.

Going from `Cn1cc(-c2ccc(F)c(C(F)(F)F)c2)nc1C1CCN(c2ncnc3[nH]ncc23)CC1` [SPE_K21833260] to `NC1(Cc2ccc(Cl)cc2)CCN(c2ncnc3[nH]ccc23)CC1` [SPE_K76406695], the activation at 10 µM falls from -1.12% to -4.38%.

Compared with `CC(C)[C@H](CO)Nc1nc(Nc2ccc(C(=O)O)c(Cl)c2)c2ncn(C(C)C)c2n1` [SPE_K41564320], `CC(C)n1cnc2c(C(=O)N[C@H]3CN4CCC3CC4)cc(Cl)cc21` [SPE_K80725821] is lower in activation at 10 µM: 1.13% for the first, 0.494% for the second.

First: O=C(Cc1ccc(-c2ccc(OCCN3CCOCC3)cc2)cn1)NCc1ccccc1 [SPE_K29968218]
Second: c1ccc(CCCCN2CCC(c3ccccc3)CC2)cc1 [SPE_K78061844]
The activation at 10 µM of the first is lower: -4.21% for the first, 42.6% for the second.

Going from `CC(=O)Nc1cccc(-n2c(=O)n(C3CC3)c(=O)c3c(Nc4ccc(I)cc4F)n(C)c(=O)c(C)c32)c1` [SPE_K12343256] to `C[C@H](NC(=O)[C@@H](O)c1cc(F)cc(F)c1)C(=O)N[C@@H]1C(=O)N(C)c2ccccc2-c2ccccc21` [SPE_K20013301], the activation at 10 µM falls from -1.89% to -13.5%.

Going from `CC#CC(=O)N1CCC[C@H]1c1nc(-c2ccc(C(=O)Nc3ccccn3)cc2)c2c(N)nccn12` [SPE_K64034691] to `Cc1cc(C(N)=O)ccc1-n1c(CCC(=O)O)ccc1-c1ccc(-n2ccnc2)cc1` [SPE_K82522873], the activation at 10 µM rises from -12.3% to -2.92%.

Compared with `COc1ccc(CC2NCCc3cc(OC)c(OC)cc32)cc1OC` (stereo not drawn) [SPE_A91831168], `COc1cc(-n2c(S)nc3ccccc3c2=O)c(Cl)cc1Cl` [SPE_K61128465] is higher in activation at 10 µM: -15.9% for the first, 22% for the second.

Compared with `C[C@]12CC[C@H]3[C@@H](CCC4=CC(=O)CC[C@@]43C)[C@@H]1CC[C@@H]2C(=O)CO` [SPE_K98521173], `COC(=O)Nc1ccc(-c2nc(N3CCOCC3)c3cnn(C4CCN(Cc5cccnc5)CC4)c3n2)cc1` [SPE_K49900195] is higher in activation at 10 µM: -5.9% for the first, 1.79% for the second.

Going from `N#Cc1ccc(Cn2cncc2CN2CCN(c3cccc(Cl)c3)C(=O)C2)cc1` [SPE_K10958118] to `O=c1oc(-c2ccc(C(F)(F)F)cc2)nn1Cc1cc(Cl)ccc1O` [SPE_K95609758], the activation at 10 µM rises from -5.79% to 5.3%.

Compared with `Cn1cccc1/C=C1\C(=O)NC(=O)c2ccccc21` [SPE_K61665160], `COc1cccc(-c2cc(=O)c3ccccc3o2)c1N` [SPE_K62810658] is higher in activation at 10 µM: -5.42% for the first, 2.96% for the second.

Going from `Nc1ccc(S(=O)(=O)Nc2ccnn2-c2ccccc2)cc1` [SPE_K10671814] to `O=C1NC(c2cccc([N+](=O)[O-])c2)=CCN1c1ccccc1O` [SPE_K48869804], the activation at 10 µM rises from -1.85% to 1.47%.

Going from `COc1ccc(-n2c(C)c([N+](=O)[O-])c3ccc(O)cc32)cc1` [SPE_K39166528] to `Nc1nc(NCCc2ccc(O)cc2)nc2nc(-c3ccco3)nn12` [SPE_K19605405], the activation at 10 µM rises from -10.4% to -2.19%.

Compared with `CC(C)OC(=O)OCOP(=O)(CO[C@H](C)Cn1cnc2c(N)ncnc21)OCOC(=O)OC(C)C` [SPE_K61868322], `COC(=O)C1=C(C)NC(C)=C(C(=O)OCC(C)C)C1c1ccccc1[N+](=O)[O-]` (stereo not drawn) [SPE_A84465106] is higher in activation at 10 µM: -3.62% for the first, 0.581% for the second.

Compared with `C[C@@H](C1=C(CCN(C)C)Cc2ccccc21)c1ccccn1` [SPE_K83192048], `c1ccc(-c2n[nH]c3c2oc2ccccc23)cc1` [SPE_K16664969] is lower in activation at 10 µM: 11.3% for the first, -3.59% for the second.

Going from `CC[C@@]1(O)C(=O)OCc2c1cc1n(c2=O)Cc2cc3c(CN(C)C)c(O)ccc3nc2-1` [SPE_K55696337] to `CC(C)c1ccc(CC(=O)N2CCC[C@@H](c3cccc(OC(C)(C)C(=O)O)c3)C2)cc1` [SPE_K96843359], the activation at 10 µM falls from -1.88% to -10.8%.

Going from `CC(C)(C)C(=O)OCOC(=O)C1N2C(=O)CC2S(=O)(=O)C1(C)C` (stereo not drawn) [SPE_A63431791] to `CC(=O)OCC(=O)NCCCOc1cccc(CN2CCCCC2)c1` [SPE_K81855038], the activation at 10 µM falls from -1.74% to -10.7%.

Going from `Nc1ncnc2c1c(-c1ccc(Cl)cc1)nn2-c1cccc(-c2cnnn2Cc2cccc(-c3ccccc3)c2)c1` [SPE_K88154110] to `COc1cc(N)c(Cl)cc1C(=O)OCCN1CCCCC1` [SPE_K69343602], the activation at 10 µM rises from -7.24% to -4.29%.

Going from `C=CC(C)(O)CCC=C(C)C` (stereo not drawn) [SPE_A43082461] to `O=C(O)C1=CCNCC1` [SPE_K66480997], the activation at 10 µM rises from -7.7% to -5.88%.
